Reference: ChEMBL document CHEMBL3046559, “Sterile oat (Avena sterilis L.) cross-resistance profile to ACCase-inhibiting herbicides in Greece” (2012)

Experiments:
Format in all cases: functional
Avena sterilis [1] = assay: Herbicidal activity against Avena sterilis accession P18 assessed as weed survival at 1 times field recommended herbicide dose
Avena sterilis [2] = assay: Herbicidal activity against Avena sterilis accession P16 assessed as weed survival at 1 times field recommended herbicide dose
Avena sterilis [3] = assay: Herbicidal activity against Avena sterilis accession P14 assessed as weed survival at 1 times field recommended herbicide dose
Avena sterilis [4] = assay: Herbicidal activity against Avena sterilis accession P11 assessed as weed survival at 1 times field recommended herbicide dose
Avena sterilis [5] = assay: Herbicidal activity against Avena sterilis accession P07 assessed as weed survival at 1 times field recommended herbicide dose
Avena sterilis [6] = assay: Herbicidal activity against Avena sterilis accession P21S assessed as weed survival at 1/32 times field recommended herbicide dose
Avena sterilis [7] = assay: Herbicidal activity against Avena sterilis accession P19S assessed as weed survival at 1/32 times field recommended herbicide dose
Avena sterilis [8] = assay: Herbicidal activity against Avena sterilis accession P13S assessed as weed survival at 1/32 times field recommended herbicide dose
Avena sterilis [9] = assay: Herbicidal activity against Avena sterilis accession P10S assessed as weed survival at 1/32 times field recommended herbicide dose
Avena sterilis [10] = assay: Herbicidal activity against Avena sterilis accession P06S assessed as weed survival at 1/32 times field recommended herbicide dose
Avena sterilis [11] = assay: Herbicidal activity against Avena sterilis accession P22 assessed as weed survival at 32 times field recommended herbicide dose
Avena sterilis [12] = assay: Herbicidal activity against Avena sterilis accession P05 assessed as weed survival at 1 times field recommended herbicide dose
Avena sterilis [13] = assay: Herbicidal activity against Avena sterilis accession P02 assessed as weed survival at 1 times field recommended herbicide dose
Avena sterilis [14] = assay: Herbicidal activity against Avena sterilis accession P01 assessed as weed survival at 1 times field recommended herbicide dose
Avena sterilis [15] = assay: Herbicidal activity against Avena sterilis accession P21S assessed as induction of weed mortality
Avena sterilis [16] = assay: Herbicidal activity against Avena sterilis accession P19S assessed as induction of weed mortality
Avena sterilis [17] = assay: Herbicidal activity against Avena sterilis accession P10S assessed as induction of weed mortality
Avena sterilis [18] = assay: Herbicidal activity against Avena sterilis accession P06S assessed as induction of weed mortality
Avena sterilis [19] = assay: Herbicidal activity against Avena sterilis accession P22 assessed as induction of weed mortality
Avena sterilis [20] = assay: Herbicidal activity against Avena sterilis accession P16 assessed as induction of weed mortality
Avena sterilis [21] = assay: Herbicidal activity against Avena sterilis accession P14 assessed as induction of weed mortality
Avena sterilis [22] = assay: Herbicidal activity against Avena sterilis accession P09 assessed as induction of weed mortality
Avena sterilis [23] = assay: Herbicidal activity against Avena sterilis accession P08 assessed as induction of weed mortality
Avena sterilis [24] = assay: Herbicidal activity against Avena sterilis accession P02 assessed as induction of weed mortality
Avena sterilis [25] = assay: Herbicidal activity against Avena sterilis accession P01 assessed as induction of weed mortality
Avena sterilis [26] = assay: Herbicidal activity against Avena sterilis accession P17 assessed as weed survival at 8 times field recommended herbicide dose
Avena sterilis [27] = assay: Herbicidal activity against Avena sterilis accession P16 assessed as weed survival at 8 times field recommended herbicide dose
Avena sterilis [28] = assay: Herbicidal activity against Avena sterilis accession P15 assessed as weed survival at 8 times field recommended herbicide dose
Avena sterilis [29] = assay: Herbicidal activity against Avena sterilis accession P14 assessed as weed survival at 8 times field recommended herbicide dose
Avena sterilis [30] = assay: Herbicidal activity against Avena sterilis accession P12 assessed as weed survival at 8 times field recommended herbicide dose
Avena sterilis [31] = assay: Herbicidal activity against Avena sterilis accession P16 assessed as weed survival at 32 times field recommended herbicide dose
Avena sterilis [32] = assay: Herbicidal activity against Avena sterilis accession P12 assessed as weed survival at 32 times field recommended herbicide dose
Avena sterilis [33] = assay: Herbicidal activity against Avena sterilis accession P08 assessed as weed survival at 32 times field recommended herbicide dose
Avena sterilis [34] = assay: Herbicidal activity against Avena sterilis accession P07 assessed as weed survival at 32 times field recommended herbicide dose
Avena sterilis [35] = assay: Herbicidal activity against Avena sterilis accession P01 assessed as weed survival at 32 times field recommended herbicide dose
Avena sterilis [36] = assay: Herbicidal activity against Avena sterilis accession P10S assessed as weed survival at 1/16 times field recommended herbicide dose
Avena sterilis [37] = assay: Herbicidal activity against Avena sterilis accession P06S assessed as weed survival at 1/16 times field recommended herbicide dose
Avena sterilis [38] = assay: Herbicidal activity against Avena sterilis accession P20 assessed as weed survival at 16 times field recommended herbicide dose
Avena sterilis [39] = assay: Herbicidal activity against Avena sterilis accession P17 assessed as weed survival at 16 times field recommended herbicide dose
Avena sterilis [40] = assay: Herbicidal activity against Avena sterilis accession P14 assessed as weed survival at 16 times field recommended herbicide dose
Avena sterilis [41] = assay: Herbicidal activity against Avena sterilis accession P04 assessed as weed survival at 16 times field recommended herbicide dose
Avena sterilis [42] = assay: Herbicidal activity against Avena sterilis accession P01 assessed as weed survival at 16 times field recommended herbicide dose
Avena sterilis [43] = assay: Herbicidal activity against Avena sterilis accession P22 assessed as weed survival at 8 times field recommended herbicide dose
Avena sterilis [44] = assay: Herbicidal activity against Avena sterilis accession P20 assessed as weed survival at 8 times field recommended herbicide dose
Avena sterilis [45] = assay: Herbicidal activity against Avena sterilis accession P08 assessed as weed survival at 8 times field recommended herbicide dose
Avena sterilis [46] = assay: Herbicidal activity against Avena sterilis accession P03 assessed as weed survival at 8 times field recommended herbicide dose
Avena sterilis [47] = assay: Herbicidal activity against Avena sterilis accession P13S assessed as weed survival at 1/4 times field recommended herbicide dose
Avena sterilis [48] = assay: Herbicidal activity against Avena sterilis accession P10S assessed as weed survival at 1/4 times field recommended herbicide dose
Avena sterilis [49] = assay: Herbicidal activity against Avena sterilis accession P20 assessed as weed survival at 4 times field recommended herbicide dose
Avena sterilis [50] = assay: Herbicidal activity against Avena sterilis accession P18 assessed as weed survival at 4 times field recommended herbicide dose
Avena sterilis [51] = assay: Herbicidal activity against Avena sterilis accession P16 assessed as weed survival at 4 times field recommended herbicide dose
Avena sterilis [52] = assay: Herbicidal activity against Avena sterilis accession P14 assessed as weed survival at 4 times field recommended herbicide dose
Avena sterilis [53] = assay: Herbicidal activity against Avena sterilis accession P12 assessed as weed survival at 4 times field recommended herbicide dose
Avena sterilis [54] = assay: Herbicidal activity against Avena sterilis accession P09 assessed as weed survival at 4 times field recommended herbicide dose
Avena sterilis [55] = assay: Herbicidal activity against Avena sterilis accession P05 assessed as weed survival at 4 times field recommended herbicide dose
Avena sterilis [56] = assay: Herbicidal activity against Avena sterilis accession P03 assessed as weed survival at 4 times field recommended herbicide dose
Avena sterilis [57] = assay: Herbicidal activity against Avena sterilis accession P01 assessed as weed survival at 4 times field recommended herbicide dose
Avena sterilis [58] = assay: Herbicidal activity against Avena sterilis accession P22 assessed as weed survival at 1 times field recommended herbicide dose

## COC(=O)C(C)Oc1ccc(Oc2ccc(Cl)cc2Cl)cc1 (stereo unspecified) [DICLOFOP-METHYL]
Avena sterilis [1]
  Survival: 100%
Avena sterilis [2]
  Survival: 80%
Avena sterilis [3]
  Survival: 90%
Avena sterilis [4]
  Survival: 100%
Avena sterilis [5]
  Survival: 100%
Avena sterilis [6]
  Survival: 100%
Avena sterilis [7]
  Survival: 100%
Avena sterilis [8]
  Survival: 100%
Avena sterilis [9]
  Survival: 100%
Avena sterilis [10]
  Survival: 100%
Avena sterilis [11]
  Survival: 20%
Avena sterilis [12]
  Survival: 100%
Avena sterilis [13]
  Survival: 100%
Avena sterilis [14]
  Survival: 90%
Avena sterilis [15]
  GR50: 418 gAi/ha
Avena sterilis [16]
  GR50: 451 gAi/ha
Avena sterilis [17]
  GR50: 506 gAi/ha
Avena sterilis [18]
  GR50: 548 gAi/ha
Avena sterilis [19]
  GR50: 3989 gAi/ha
Avena sterilis [20]
  GR50: 5442 gAi/ha
Avena sterilis [21]
  GR50: 11045 gAi/ha
Avena sterilis [22]
  GR50: 14176 gAi/ha
Avena sterilis [23]
  GR50: 11354 gAi/ha
Avena sterilis [24]
  GR50: >22740 gAi/ha
Avena sterilis [25]
  GR50: 21999 gAi/ha
Avena sterilis [26]
  Survival: 60%
Avena sterilis [27]
  Survival: 53%
Avena sterilis [28]
  Survival: 80%
Avena sterilis [29]
  Survival: 60%
Avena sterilis [30]
  Survival: 80%
Avena sterilis [31]
  Survival: 20%
Avena sterilis [32]
  Survival: 63%
Avena sterilis [33]
  Survival: 33%
Avena sterilis [34]
  Survival: 20%
Avena sterilis [35]
  Survival: 50%
Avena sterilis [36]
  Survival: 97%
Avena sterilis [37]
  Survival: 100%
Avena sterilis [38]
  Survival: 80%
Avena sterilis [39]
  Survival: 43%
Avena sterilis [40]
  Survival: 50%
Avena sterilis [41]
  Survival: 53%
Avena sterilis [42]
  Survival: 60%
Avena sterilis [43]
  Survival: 40%
Avena sterilis [44]
  Survival: 80%
Avena sterilis [45]
  Survival: 60%
Avena sterilis [46]
  Survival: 60%
Avena sterilis [47]
  Survival: 80%
Avena sterilis [48]
  Survival: 90%
Avena sterilis [49]
  Survival: 100%
Avena sterilis [50]
  Survival: 80%
Avena sterilis [51]
  Survival: 60%
Avena sterilis [52]
  Survival: 77%
Avena sterilis [53]
  Survival: 80%
Avena sterilis [54]
  Survival: 80%
Avena sterilis [55]
  Survival: 70%
Avena sterilis [56]
  Survival: 93%
Avena sterilis [57]
  Survival: 87%
Avena sterilis [58]
  Survival: 97%

## CCOC(=O)[C@@H](C)Oc1ccc(Oc2nc3ccc(Cl)cc3o2)cc1 [FENOXAPROP-P-ETHYL]
Avena sterilis [1]
  Survival: 100%
Avena sterilis [2]
  Survival: 93%
Avena sterilis [3]
  Survival: 57%
Avena sterilis [4]
  Survival: 97%
Avena sterilis [5]
  Survival: 97%
Avena sterilis [6]
  Survival: 97%
Avena sterilis [7]
  Survival: 93%
Avena sterilis [8]
  Survival: 90%
Avena sterilis [9]
  Survival: 100%
Avena sterilis [10]
  Survival: 97%
Avena sterilis [11]
  Survival: 0%
Avena sterilis [12]
  Survival: 77%
Avena sterilis [13]
  Survival: 100%
Avena sterilis [14]
  Survival: 97%
Avena sterilis [15]
  GR50: 18 gAi/ha
Avena sterilis [16]
  GR50: 31 gAi/ha
Avena sterilis [17]
  GR50: 16 gAi/ha
Avena sterilis [18]
  GR50: 18 gAi/ha
Avena sterilis [19]
  GR50: 250 gAi/ha
Avena sterilis [20]
  GR50: 505 gAi/ha
Avena sterilis [21]
  GR50: 155 gAi/ha
Avena sterilis [22]
  GR50: 2121 gAi/ha
Avena sterilis [23]
  GR50: 854 gAi/ha
Avena sterilis [24]
  GR50: 2070 gAi/ha
Avena sterilis [25]
  GR50: 600 gAi/ha
Avena sterilis [26]
  Survival: 20%
Avena sterilis [27]
  Survival: 20%
Avena sterilis [28]
  Survival: 70%
Avena sterilis [29]
  Survival: 27%
Avena sterilis [30]
  Survival: 53%
Avena sterilis [31]
  Survival: 0%
Avena sterilis [32]
  Survival: 40%
Avena sterilis [33]
  Survival: 20%
Avena sterilis [34]
  Survival: 70%
Avena sterilis [35]
  Survival: 20%
Avena sterilis [36]
  Survival: 87%
Avena sterilis [37]
  Survival: 90%
Avena sterilis [38]
  Survival: 83%
Avena sterilis [39]
  Survival: 20%
Avena sterilis [40]
  Survival: 20%
Avena sterilis [41]
  Survival: 37%
Avena sterilis [42]
  Survival: 23%
Avena sterilis [43]
  Survival: 7%
Avena sterilis [44]
  Survival: 90%
Avena sterilis [45]
  Survival: 63%
Avena sterilis [46]
  Survival: 60%
Avena sterilis [47]
  Survival: 43%
Avena sterilis [48]
  Survival: 30%
Avena sterilis [49]
  Survival: 100%
Avena sterilis [50]
  Survival: 97%
Avena sterilis [51]
  Survival: 90%
Avena sterilis [52]
  Survival: 43%
Avena sterilis [53]
  Survival: 80%
Avena sterilis [54]
  Survival: 80%
Avena sterilis [55]
  Survival: 25%
Avena sterilis [56]
  Survival: 50%
Avena sterilis [57]
  Survival: 73%
Avena sterilis [58]
  Survival: 87%
